# Reference: US4904764A, “4-diazo-3-methyl-2,5-cyclohexadine-1-one and pharmacetically acceptable salts thereof” (E. R. Squibb & Sons, Inc., priority 1985, dated 1990)
# Columns and labels:
# [1] = system: Bacteroides thetaiotamicron SC9005; test: Agar dilution assay, anaerobic bacteria (MIC); type: cell-based; details: B. thetaiotamicron SC9005, DST agar, 10^5 CFU, 37° C., 18 hours, anaerobic chamber
# [2] = system: gram positive and gram negative bacteria; test: Antibacterial activity (general statement); type: cell-based
# [3] = system: Clostridium septicum SC1780; test: Agar dilution assay, anaerobic bacteria (MIC); type: cell-based; details: SC1780, 18 h
# Procedure: The susceptibility of a number of anaerobic bacteria was also determined by an agar dilution technique. Test organisms were prepared from 24-48 hour cultures grown in Chopped Meat Broth (Scott Laboratories, Fiskeville, R.I.) or from washings from chocolate agar slants. These slants were prepared by adding hemoglobin to Proteose #3 Agar (Difco) to a concentration of one percent. The growth was washed off the slants with Brain Heart Infusion Broth (BBL Microbiology Systems) and diluted to a density of 10^8 CFU/ml. The subject compound was dissolved in the appropriate diluent at a concentration of 1000 μg/ml.
# The agar dilution assays yielded the following results: […]
# [4] = system: Staphylococcus aureus SC2399; test: Agar dilution assay, aerobic test organisms (MIC); details: SC2399, 18 h
# [5] = system: Klebsiella aerogenes SC10440; test: Agar dilution assay, aerobic test organisms (MIC); details: SC10440, 18 h
# [6] = system: Hemophilus vaginalis SC8568; test: Agar dilution assay, anaerobic bacteria (MIC); type: cell-based; details: Gardnerella vaginalis; H. vaginalis SC8568; DST agar, 10^5 CFU, 37° C., 18 hours, anaerobic chamber
# [7] = system: Enterobacter cloacae SC8236; test: Agar dilution assay, aerobic test organisms (MIC); details: SC8236, 18 h
# Proteus mirabilis SC3855 = test: Agar dilution assay, aerobic test organisms (MIC); details: SC3855, 18 h
# [8] = system: Streptococcus faecalis SC9011; test: Agar dilution assay, aerobic test organisms (MIC); details: Enterococcus faecalis, SC9011, 18 h
# Escherichia coli SC8294 = test: Agar dilution assay, aerobic test organisms (MIC); details: SC8294, 18 h
# [9] = system: Streptococcus agalactiae SC9287; test: Agar dilution assay, aerobic test organisms (MIC); details: SC9287, 18 h
# [10] = system: Pseudomonas anaerobius SC11263; test: Agar dilution assay, anaerobic bacteria (MIC); type: cell-based; details: DST agar, 10^5 CFU, 37° C., 18 hours, anaerobic chamber
# Escherichia coli SC10896 = test: Agar dilution assay, aerobic test organisms (MIC); details: SC10896, 18 h
# [11] = system: Staphylococcus aureus SC1276; test: Agar dilution assay, aerobic test organisms (MIC); details: SC1276, 18 h
# [12] = system: Bacteroides thetaiotamicron SC10278; test: Agar dilution assay, anaerobic bacteria (MIC); type: cell-based; details: B. thetaiotamicron SC10278, DST agar, 10^5 CFU, 37° C., 18 hours, anaerobic chamber
# [13] = system: Klebsiella pneumoniae SC9527; test: Agar dilution assay, aerobic test organisms (MIC); details: SC9527, 18 h
# [14] = system: Fusobacterium necrophorum SC10338; test: Agar dilution assay, anaerobic bacteria (MIC); type: cell-based; details: F. necrophorum SC10338, DST agar, 10^5 CFU, 37° C., 18 hours, anaerobic chamber
# [15] = Photolability (half-life); type: physicochemical; details: exposure to light; read-out: photolabile, half-life
# [16] = system: Salmonella typhosa SC1195; test: Agar dilution assay, aerobic test organisms (MIC); details: Salmonella enterica, 18 h
# [17] = system: Bacteroides fragilis SC10277; test: Agar dilution assay, anaerobic bacteria (MIC); type: cell-based; details: B. fragilis SC10277, DST agar, 10^5 CFU, 37° C., 18 hours, anaerobic chamber
# Shigella sonnei SC8449 = test: Agar dilution assay, aerobic test organisms (MIC); type: cell-based; details: S. sonnei SC8449, K-10 agar, 10^4 CFU, 37° C., 18 hours, protected from light
# [18] = system: Staphylococcus aureus SC2400; test: Agar dilution assay, aerobic test organisms (MIC); details: SC2400, 18 h
# [19] = system: Clostridium difficile SC11251; test: Agar dilution assay, anaerobic bacteria (MIC); type: cell-based; details: Clostridioides difficile; C. difficile SC11251; DST agar, 10^5 CFU, 37° C., 18 hours, anaerobic chamber
# [20] = system: Bacteroides fragilis SC9844; test: Agar dilution assay, anaerobic bacteria (MIC); type: cell-based; details: B. fragilis SC9844, DST agar, 10^5 CFU, 37° C., 18 hours, anaerobic chamber
# [21] = system: Bacteroides fragilis SC11085; test: Agar dilution assay, anaerobic bacteria (MIC); type: cell-based; details: B. fragilis SC11085, DST agar, 10^5 CFU, 37° C., 18 hours, anaerobic chamber
# [22] = system: Clostridium perfringens SC11256; test: microbe, parasite or virus in culture; type: cell-based; details: SC11256, 18 h
# [23] = system: Pseudomonas aeruginosa SC8333; test: Agar dilution assay, aerobic test organisms (MIC); details: SC8333, 18 h
# [24] = system: Hemophilus vaginalis SC9640; test: Agar dilution assay, anaerobic bacteria (MIC); type: cell-based; details: Gardnerella vaginalis; H. vaginalis SC9640; DST agar, 10^5 CFU, 37° C., 18 hours, anaerobic chamber
# [25] = system: Escherichia colid SC10909; test: Agar dilution assay, aerobic test organisms (MIC); details: SC10909, 18 h
structure (smiles),measurement,setting,value
COC1=CC(=O)C=CC1=[N+]=[N-],MIC,[1],0.4 µg/mL
same,activity against bacteria,[2],"activity against a variety of gram positive and gram negative bacteria, particularly against anaerobic bacteria"
same,MIC,[3],< 0.05 µg/mL
same,MIC,[4],12.5 µg/mL
same,MIC,[5],12.5 µg/mL
same,MIC,[6],0.2 µg/mL
same,MIC,[7],50 µg/mL
same,MIC,Proteus mirabilis SC3855,3.1 µg/mL
same,MIC,[8],6.3 µg/mL
same,MIC,Escherichia coli SC8294,3.1 µg/mL
same,MIC,[9],6.3 µg/mL
same,MIC,[10],< 0.05 µg/mL
same,MIC,Escherichia coli SC10896,6.3 µg/mL
same,MIC,[11],2.5 µg/mL
same,MIC,[12],0.4 µg/mL
same,MIC,[13],25 µg/mL
same,MIC,[14],< 0.05 µg/mL
same,half-life,[15],< 2 h
same,MIC,[16],1.6 µg/mL
same,MIC,[17],0.4 µg/mL
same,MIC,Shigella sonnei SC8449,1.6 µg/mL
same,MIC,[18],12.5 µg/mL
same,MIC,[19],0.4 µg/mL
same,MIC,[20],0.4 µg/mL
same,MIC,[21],0.2 µg/mL
same,MIC,[22],0.2 µg/mL
same,MIC,[23],25 µg/mL
same,MIC,[24],0.4 µg/mL
same,MIC,[25],3.1 µg/mL
